According to ChEMBL document CHEMBL1201862, “PubChem BioAssay data set” (2004):
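Assay format: 96-well plates, 48-hour exposure. Abbreviation: GI50, concentration required for 50% inhibition of growth.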 The source made the active and inactive calls. No stated cut-off is given here; in the data, active = GI50 up to about 1.1 µM and inactive = higher.

Columns and labels:
Assay in all cases: DTP human tumour cell line panel, 48 h
CAKI-1 = test system: CAKI-1
SK-MEL-28 = test system: SK-MEL-28
A549 = test system: A549
SNB-75 = test system: SNB-75
OVCAR-3 = test system: OVCAR-3
UO-31 = test system: UO-31
NCI-H226 = test system: NCI-H226
SF-295 = test system: SF-295
HOP-92 = test system: HOP-92
KM12 = test system: KM12
LXFL 529 = test system: LXFL 529
SN12C = test system: SN12C
TK-10 = test system: TK-10
SK-OV-3 = test system: SK-OV-3
OVCAR-8 = test system: OVCAR-8
SR = test system: SR
SF-268 = test system: SF-268
UACC-257 = test system: UACC-257
HT-29 = test system: HT-29
NCI-H23 = test system: NCI-H23
HCT-116 = test system: HCT-116
DMS-114 = test system: DMS-114
COLO 205 = test system: COLO 205
M19-MEL = test system: M19-MEL
RPMI-8226 = test system: RPMI-8226
HCC 2998 = test system: HCC 2998
OVCAR-4 = test system: OVCAR-4
EKVX = test system: EKVX
SK-MEL-2 = test system: SK-MEL-2
UACC-62 = test system: UACC-62
M14 = test system: M14
MOLT-4 = test system: MOLT-4
SW-620 = test system: SW-620
HL-60 = test system: HL-60
SF-539 = test system: SF-539
RXF 631 = test system: RXF 631
SNB-78 = test system: SNB-78
HOP-62 = test system: HOP-62
IGROV-1 = test system: IGROV-1
K562 = test system: K562
DMS-273 = test system: DMS-273
786-0 = test system: 786-0
NCI-H522 = test system: NCI-H522
DLD-1 = test system: DLD-1
Malme-3M = test system: Malme-3M
CCRF-CEM = test system: CCRF-CEM
SNB-19 = test system: SNB-19
SK-MEL-5 = test system: SK-MEL-5
NCI-H460 = test system: NCI-H460
LOX IMVI = test system: LOX IMVI
OVCAR-5 = test system: OVCAR-5
U-251 = test system: U-251
A498 = test system: A498
ACHN = test system: ACHN
KM-20L2 = test system: KM-20L2
HOP-18 = test system: HOP-18
HCT-15 = test system: HCT-15

Cc1cccc2c3ccc4c(c3n(C)c12)C(=O)C=CC4=O was tested, and the GI50 (CAKI-1) was > 100 µM (inactive), the GI50 (SK-MEL-28) was > 100 µM (inactive) and the GI50 (A549) was > 100 µM (inactive). For the same molecule, the GI50 (SNB-75) was > 100 µM (inactive), the GI50 (OVCAR-3) was > 100 µM (inactive) and the GI50 (UO-31) was 28.9 µM (inactive). For the same molecule, the GI50 (NCI-H226) was > 100 µM (inactive), the GI50 (SF-295) was > 100 µM (inactive) and the GI50 (HOP-92) was > 100 µM (inactive). The GI50 (KM12) was > 100 µM (inactive), the GI50 (LXFL 529) was > 100 µM (inactive) and the GI50 (SN12C) was > 100 µM (inactive). For the same molecule, the GI50 (TK-10) was > 100 µM (inactive), the GI50 (SK-OV-3) was > 100 µM (inactive) and the GI50 (OVCAR-8) was 89.1 µM (inactive). The GI50 (SR) was 29.3 µM (inactive), the GI50 (SF-268) was > 100 µM (inactive) and the GI50 (UACC-257) was > 100 µM (inactive). For the same molecule, the GI50 (HT-29) was > 100 µM (inactive), the GI50 (NCI-H23) was 18.6 µM (inactive) and the GI50 (HCT-116) was > 100 µM (inactive). For the same molecule, the GI50 (DMS-114) was 41.1 µM (inactive), the GI50 (COLO 205) was > 100 µM (inactive) and the GI50 (M19-MEL) was > 100 µM (inactive). For the same molecule, the GI50 (RPMI-8226) was 32.8 µM (inactive), the GI50 (HCC 2998) was > 100 µM (inactive) and the GI50 (OVCAR-4) was > 100 µM (inactive). For the same molecule, the GI50 (EKVX) was > 100 µM (inactive), the GI50 (SK-MEL-2) was > 100 µM (inactive) and the GI50 (UACC-62) was 59.7 µM (inactive). For the same molecule, the GI50 (M14) was > 100 µM (inactive), the GI50 (MOLT-4) was 35.9 µM (inactive) and the GI50 (SW-620) was > 100 µM (inactive). For the same molecule, the GI50 (HL-60) was 17.1 µM (inactive), the GI50 (SF-539) was > 100 µM (inactive) and the GI50 (RXF 631) was > 100 µM (inactive). For the same molecule, the GI50 (SNB-78) was > 100 µM (inactive), the GI50 (HOP-62) was > 100 µM (inactive) and the GI50 (IGROV-1) was > 100 µM (inactive). For the same molecule, the GI50 (K562) was > 100 µM (inactive), the GI50 (DMS-273) was 76 µM (inactive) and the GI50 (786-0) was > 100 µM (inactive). For the same molecule, the GI50 (NCI-H522) was > 100 µM (inactive), the GI50 (DLD-1) was > 100 µM (inactive) and the GI50 (Malme-3M) was > 100 µM (inactive). For the same molecule, the GI50 (CCRF-CEM) was 18.2 µM (inactive) and the GI50 (SNB-19) was > 100 µM (inactive).

In the case of Cc1ccc(S(=O)(=O)OCC23CCC(C4CC42)C2CC23)cc1 (stereo unspecified), the GI50 (CAKI-1) is reported as > 100 µM (inactive), the GI50 (SK-MEL-28) is reported as > 100 µM (inactive) and the GI50 (A549) is reported as 80.4 µM (inactive). The GI50 (SK-MEL-5) was 31.6 µM (inactive), the GI50 (OVCAR-3) was 38.5 µM (inactive) and the GI50 (UO-31) was 44.2 µM (inactive). The GI50 (NCI-H226) was 95.7 µM (inactive), the GI50 (NCI-H460) was 88.1 µM (inactive) and the GI50 (SF-295) was 50.8 µM (inactive). The GI50 (HOP-92) was 29.2 µM (inactive), the GI50 (LXFL 529) was 65 µM (inactive) and the GI50 (SN12C) was > 100 µM (inactive). The GI50 (TK-10) was > 100 µM (inactive), the GI50 (SK-OV-3) was > 100 µM (inactive) and the GI50 (OVCAR-8) was > 100 µM (inactive). The GI50 (SR) was 38.5 µM (inactive), the GI50 (LOX IMVI) was > 100 µM (inactive) and the GI50 (SF-268) was 67.9 µM (inactive). The GI50 (UACC-257) was 7.01 µM (inactive), the GI50 (OVCAR-5) was > 100 µM (inactive) and the GI50 (HT-29) was 43.8 µM (inactive). The GI50 (NCI-H23) was 48.8 µM (inactive), the GI50 (HCT-116) was 87.7 µM (inactive) and the GI50 (DMS-114) was 37.5 µM (inactive). For the same molecule, the GI50 (COLO 205) was 95.9 µM (inactive), the GI50 (U-251) was > 100 µM (inactive) and the GI50 (M19-MEL) was 60.7 µM (inactive). The GI50 (RPMI-8226) was 36.3 µM (inactive), the GI50 (HCC 2998) was > 100 µM (inactive) and the GI50 (OVCAR-4) was 28.1 µM (inactive). The GI50 (UACC-62) was 65.6 µM (inactive), the GI50 (A498) was 96.2 µM (inactive) and the GI50 (M14) was > 100 µM (inactive). For the same molecule, the GI50 (ACHN) was > 100 µM (inactive), the GI50 (MOLT-4) was 50.8 µM (inactive) and the GI50 (SW-620) was > 100 µM (inactive). The GI50 (HL-60) was 17.7 µM (inactive), the GI50 (RXF 631) was > 100 µM (inactive) and the GI50 (HOP-62) was 52.7 µM (inactive). For the same molecule, the GI50 (IGROV-1) was > 100 µM (inactive), the GI50 (K562) was 52.4 µM (inactive) and the GI50 (DMS-273) was 68.2 µM (inactive). For the same molecule, the GI50 (KM-20L2) was > 100 µM (inactive), the GI50 (786-0) was > 100 µM (inactive) and the GI50 (HOP-18) was > 100 µM (inactive). The GI50 (HCT-15) was greater than 100 µM, the GI50 (DLD-1) was > 100 µM (inactive) and the GI50 (Malme-3M) was 75.5 µM (inactive). For the same molecule, the GI50 (CCRF-CEM) was 22.8 µM (inactive) and the GI50 (SNB-19) was > 100 µM (inactive).

O=C(O)C(CS)Nc1c2ccccc2[n+]([O-])c2ccccc12 (stereo unspecified) was tested, and the GI50 (CAKI-1) was > 100 µM (inactive), the GI50 (SK-MEL-28) was > 100 µM (inactive) and the GI50 (A549) was > 100 µM (inactive). For the same molecule, the GI50 (SNB-75) was > 100 µM (inactive), the GI50 (SK-MEL-5) was 76 µM (inactive) and the GI50 (OVCAR-3) was > 100 µM (inactive). The GI50 (UO-31) was 49.8 µM (inactive), the GI50 (NCI-H226) was > 100 µM (inactive) and the GI50 (NCI-H460) was > 100 µM (inactive). The GI50 (SF-295) was > 100 µM (inactive), the GI50 (KM12) was > 100 µM (inactive) and the GI50 (LXFL 529) was 53.7 µM (inactive). The GI50 (SN12C) was > 100 µM (inactive), the GI50 (TK-10) was > 100 µM (inactive) and the GI50 (SK-OV-3) was > 100 µM (inactive). For the same molecule, the GI50 (OVCAR-8) was > 100 µM (inactive), the GI50 (LOX IMVI) was > 100 µM (inactive) and the GI50 (SF-268) was > 100 µM (inactive). For the same molecule, the GI50 (UACC-257) was > 100 µM (inactive), the GI50 (OVCAR-5) was > 100 µM (inactive) and the GI50 (HT-29) was > 100 µM (inactive). For the same molecule, the GI50 (NCI-H23) was 87.7 µM (inactive), the GI50 (HCT-116) was 92 µM (inactive) and the GI50 (DMS-114) was > 100 µM (inactive). The GI50 (COLO 205) was > 100 µM (inactive), the GI50 (U-251) was > 100 µM (inactive) and the GI50 (M19-MEL) was > 100 µM (inactive). The GI50 (RPMI-8226) was 29.1 µM (inactive), the GI50 (HCC 2998) was > 100 µM (inactive) and the GI50 (OVCAR-4) was > 100 µM (inactive). For the same molecule, the GI50 (EKVX) was 80.4 µM (inactive), the GI50 (SK-MEL-2) was > 100 µM (inactive) and the GI50 (UACC-62) was > 100 µM (inactive). The GI50 (A498) was > 100 µM (inactive), the GI50 (M14) was > 100 µM (inactive) and the GI50 (ACHN) was > 100 µM (inactive). For the same molecule, the GI50 (MOLT-4) was > 100 µM (inactive), the GI50 (SW-620) was > 100 µM (inactive) and the GI50 (HL-60) was 50.2 µM (inactive). For the same molecule, the GI50 (RXF 631) was > 100 µM (inactive), the GI50 (SNB-78) was > 100 µM (inactive) and the GI50 (HOP-62) was > 100 µM (inactive). For the same molecule, the GI50 (IGROV-1) was > 100 µM (inactive), the GI50 (K562) was 78.9 µM (inactive) and the GI50 (DMS-273) was > 100 µM (inactive). For the same molecule, the GI50 (KM-20L2) was > 100 µM (inactive), the GI50 (786-0) was > 100 µM (inactive) and the GI50 (HOP-18) was > 100 µM (inactive). The GI50 (HCT-15) was greater than 100 µM, the GI50 (NCI-H522) was 56.9 µM (inactive) and the GI50 (DLD-1) was 95.9 µM (inactive). For the same molecule, the GI50 (Malme-3M) was > 100 µM (inactive), the GI50 (CCRF-CEM) was > 100 µM (inactive) and the GI50 (SNB-19) was > 100 µM (inactive).
